What was measured:
Type in all cases: functional, cell-based
[1] = test system: SiHa; assay: Antiproliferative activity against human SiHa cells by MTT assay
[2] = test system: HeLa; assay: Antiproliferative activity against human HeLa cells by MTT assay
[3] = test system: A2780; assay: Antiproliferative activity against human A2780 cells by MTT assay
[4] = test system: MDA-MB-231; assay: Antiproliferative activity against human MDA-MB-231 cells by MTT assay

Measured: IC50

COc1cc(O)c2c(c1-c1c(OC)cc(O)c3c1C(=O)C(=O)c1c-3ccc(O)c1CCC(C)(C)O)C(=O)C(=O)c1c-2ccc(O)c1CCC(C)(C)O
< 10 µM: [1] | [2] | [3] | [4]

C=C(C)[C@H](CCC(C)(C)O)Cc1c(O)ccc2c1C(=O)C(=O)c1c-2c(O)cc(OC)c1-c1c(OC)cc(O)c2c1C(=O)C(=O)c1c-2ccc(O)c1C[C@@H](CCC(C)(C)O)C(=C)C
< 10 µM: [1] | [2] | [3] | [4]
